Experimental data from patent publication US8778298B2, “Isotope labeled 2-arylpropionic acid compounds and process for production of same, and molecular probe for positron emission tomography and method for imaging of cyclooxygenase and the like using same” (Riken, priority 2009, dated 2014).

Legend:
Format in all cases: in vivo
cyclooxygenase-2 [1] = assay: PET imaging using brain inflammation model rat (LPS injected into left striatum)
Protocol: PET was performed using a brain inflammation model rat for the [^11C]ketoprofen methyl ester (8) synthesized in Example 6. In the experiment, a trace amount, 0.5 μg, of lipopolysaccharide (LPS) that is a constituent of a gram-negative bacteria cell wall outer membrane was injected into the left striatum of a rat, thereby inducing brain inflammation (Hunter R L, Dragicevic N, Seifert K, Choi D Y, Liu M, Kim H C, Cass W A, Sullivan P G, Bing G. Inflammation induces mitochondrial dysfunction and dopaminergic neurodegeneration in the nigrostriatal system. J. Neurochem. 2007100:5:1375-86.). The [^11C]ketoprofen methyl ester (8) was administered to a rat after 1 day from injection of LPS through a caudal vein, PET was performed for 45 minutes using a PET apparatus for small animals (manufactured by microPET, SIMENS). The injection solution of the [^11C]ketoprofen methyl ester (radioactivity 72 to 74 MBq) was prepared by diluting with saline to 1.0 CC volume. In order to further study an effect of inhibiting bonds by a non-RI labeled body, an injection solution added with 10 mg/kg of ketoprofen methyl ester (final concentration of a solvent was 5% DMSO, 5% tween20) was prepared. On completion of PET imaging, a rat brain section was prepared and an Ex vivo autoradiography (ARG) experiment was performed. In the experiment, the rat was perfused with saline, and a section prepared with 2 mm thickness, which was obtained from the brain taken out from the rat, was exposed on an imaging plate BAS SR-2040 (manufactured by Fujifilm Corporation) for 1 hour to read using a fluoroimage analyzer (FLA7000). In order to identify an expression site of cyclooxygenase-2, chemical staining of an immune tissue in a brain section was performed using a specific antibody. That is, 20 μm of a frozen section prepared from the brain section used in the autoradiography mentioned above and pasted on a slide glass was incubated with anti-cyclooxygenase-2 (rabbit IgG, polyclonal antibody, manufactured by Cayman) diluted to PBS-T at a concentration of 200 times as a primary antibody at 4° C. overnight. […]

cyclooxygenase-2 [2] = assay: Ex vivo autoradiography (ARG) of rat brain section after PET, compared with cyclooxygenase-2 immunostaining
Protocol: PET was performed using a brain inflammation model rat for the [^11C]ketoprofen methyl ester (8) synthesized in Example 6. In the experiment, a trace amount, 0.5 μg, of lipopolysaccharide (LPS) that is a constituent of a gram-negative bacteria cell wall outer membrane was injected into the left striatum of a rat, thereby inducing brain inflammation (Hunter R L, Dragicevic N, Seifert K, Choi D Y, Liu M, Kim H C, Cass W A, Sullivan P G, Bing G. Inflammation induces mitochondrial dysfunction and dopaminergic neurodegeneration in the nigrostriatal system. J. Neurochem. 2007100:5:1375-86.). The [^11C]ketoprofen methyl ester (8) was administered to a rat after 1 day from injection of LPS through a caudal vein, PET was performed for 45 minutes using a PET apparatus for small animals (manufactured by microPET, SIMENS). The injection solution of the [^11C]ketoprofen methyl ester (radioactivity 72 to 74 MBq) was prepared by diluting with saline to 1.0 CC volume. […] In the experiment, the rat was perfused with saline, and a section prepared with 2 mm thickness, which was obtained from the brain taken out from the rat, was exposed on an imaging plate BAS SR-2040 (manufactured by Fujifilm Corporation) for 1 hour to read using a fluoroimage analyzer (FLA7000). […]

APP-Tg mouse brain = assay: PET imaging of Alzheimer disease model animal (APP-Tg mouse vs wild type mouse)
Source text: PET images were taken using an Alzheimer disease model mouse for the [^11C]ketoprofen methyl ester (21) synthesized in Example 6. For the Alzheimer disease model mouse, a transgenic mouse (APP-Tg) excessively expressing amyloid precursor protein (APP) in familial Alzheimer disease was purchased from Taconic Farms, Inc. USA to be used. In 24 months old when accumulation of amyloid β protein was confirmed as pathological change of Alzheimer disease, the [^11C]ketoprofen methyl ester (21) was administered through a caudal vein, and PET images were taken for 30 minutes using a PET apparatus for small animals (microPET, manufactured by SIMENS). The injection solution of the [^11C]ketoprofen methyl ester (21) (radioactivity 45 to 60 MBq) was prepared by diluting with saline to 1.0 CC volume. SUV (Standard Uptake Value)=tissue radioactivity in region of interest (MBq/g)÷[administration amount (MBq)/body weight (g)] was used as the index of an accumulation level, to compare with a brain of a wild type mouse that is a normal mouse in terms of an accumulation amount into the APP-Tg mouse brain.

accumulation in inflammation region with co-administered non-RI labeled ketoprofen methyl ester (specificity) (cyclooxygenase-2 [1]; 10 mg/kg of non-RI labeled ketoprofen methyl ester added to injection solution): significantly reduced
passage through the blood-brain barrier (PET) (cyclooxygenase-2 [1]; rat 1 day after 0.5 μg LPS into left striatum, tracer via caudal vein, PET 45 minutes): passed through the blood-brain barrier
Compound: COC(=O)C([11CH3])c1cccc(C(=O)c2ccccc2)c1 (stereo not shown) [[^11C]ketoprofen methyl ester (8), [^11C]ketoprofen methyl ester]
accumulation of radioactivity in brain (addition average of PET images) (cyclooxygenase-2 [1]; rat 1 day after LPS into left striatum, tracer via caudal vein, 45 minutes after administration): accumulated in an inflammation region around the LPS injected site in the left side of the brain
accumulation in ex vivo autoradiography (ARG) of rat brain section (cyclooxygenase-2 [2]; 2 mm brain section taken on completion of PET imaging, LPS rat): accumulated specifically in an inflammation site
accumulated site versus immunostaining of cyclooxygenase-2 (cyclooxygenase-2 [2]; 20 μm frozen section from ARG brain section, anti-cyclooxygenase-2 antibody, DAB method): correspond with a positive site of immunostaining of cyclooxygenase-2
accumulation amount (SUV) in brain, APP-Tg versus wild type mouse (APP-Tg mouse brain; 24 months old APP-Tg mouse, caudal vein, PET images in 25 minutes after 5 minutes from administration): highly accumulated in the APP-Tg mouse brain as compared with the wild type mouse brain
site of high accumulation versus reported site of amyloid β accumulation (APP-Tg mouse brain; APP-Tg mouse brain, compared with literature report (Am J Pathol. 1998)): corresponded with a site that was reported of accumulation of amyloid β
